# Source: PubChem BioAssay (NCI)
#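 Five compound concentrations were applied to cells in 96-well plates for 48 hours; endpoints were derived by simple linear interpolation of the resulting dose-response curve. The concentration for 50% growth inhibition is given as GI50. TGI: total growth inhibition.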
# Assays:
# Test in all cases: inhibition of tumour cell growth, NCI panel, 48 h
# NCI-H522 lung = tested on: NCI-H522 lung
# SNB-75 CNS = tested on: SNB-75 CNS
# NCI/ADR-RES ovarian = tested on: NCI/ADR-RES ovarian
# NCI-H460 lung = tested on: NCI-H460 lung
# KM12 colon = tested on: KM12 colon
# HCT-116 colon = tested on: HCT-116 colon
# A549 NSCLC = tested on: A549 NSCLC
# T-47D breast = tested on: T-47D breast
# HS 578T breast = tested on: HS 578T breast
# DU-145 prostate = tested on: DU-145 prostate
SMILES,TGI (NCI-H522 lung) [µM],TGI (SNB-75 CNS) [µM],TGI (NCI/ADR-RES ovarian) [µM],TGI (NCI-H460 lung) [µM],TGI (KM12 colon) [µM],TGI (HCT-116 colon) [µM],TGI (A549 NSCLC) [µM],TGI (T-47D breast) [µM],TGI (HS 578T breast) [µM],TGI (DU-145 prostate) [µM],GI50 (T-47D breast) [µM],GI50 (NCI-H522 lung) [µM],GI50 (HS 578T breast) [µM],GI50 (SNB-75 CNS) [µM],GI50 (NCI-H460 lung) [µM],GI50 (DU-145 prostate) [µM],GI50 (KM12 colon) [µM],GI50 (HCT-116 colon) [µM],GI50 (A549 NSCLC) [µM]
CC(C)CCCC(C)[C@H]1CCC(C2C[C@@H](O)[C@@H]3CC(O)[C@@H](O)C[C@]3(CO)C2=O)[C@]1(C)CCO (stereo partly specified),73.8,48.7,> 100,45.2,19.6,38.2,> 96.2,,,,,,,,,,,,
CC1=NN(C(=O)CC(=O)Nc2cccc(C)c2)C(=O)C1N=Nc1ccc(S(=O)(=O)CCOS(=O)(=O)O)cc1 (stereo unspecified),0.835,19.7,,11.8,13.9,12.6,50.6,> 49.5,15.3,> 100,,,,,,,,,
CC(C)(C)C(=O)Nc1c(C=O)ccc2[nH]cnc12,> 100,> 100,> 100,> 100,> 100,> 100,> 100,> 100,,,,,,,,,,,
CCOP(=O)(/C=C/n1cc(C)c(=O)[nH]c1=O)OCC,> 100,> 100,> 100,> 100,> 100,> 100,> 100,> 100,,> 100,,,,,,,,,
CCOc1ccc2nc(NC(=O)C(=O)C(C(=O)c3ccccc3F)C3OC(=O)c4ccccc43)sc2c1 (stereo unspecified),27.8,46.4,,39.5,19,31.8,76.4,,,,,,,,,,,,
C/C(=C1\N=C(c2ccccc2)OC1=O)c1ccccc1,> 100,> 100,,> 100,> 100,> 100,> 100,> 100,> 100,> 100,,,,,,,,,
N#Cc1c(-c2ccc([N+](=O)[O-])cc2)c(C#N)c(=O)n(NS(=O)(=O)c2ccccc2)c1S,42.4,> 100,> 100,> 100,> 100,39.8,> 100,,58.5,,,,,,,,,,
CC(=O)CC1(CBr)Nc2ccc([N+](=O)[O-])cc2NC1=O (stereo unspecified),41.6,> 100,> 100,> 100,> 100,> 100,> 100,> 100,,> 100,,,,,,,,,
O=C(O)c1c(CC(Cc2ccc3c(c2)CCC3)C(=O)O)ccc2c1CCC2 (stereo unspecified),> 100,,> 100,> 100,> 100,> 100,> 100,,> 100,> 100,,,,,,,,,
Clc1ccc2c(c1)N(CCCN1CCCC13CCCCC3)c1ccccc1S2,25.1,,44.5,21.4,27.7,30.7,40.2,30,34.2,34.2,,,,,,,,,
COC(=O)C1=C(CCCCO[Si](C)(C)C(C)(C)C)NC(=O)N2[C@H](CCOCc3ccccc3)CC[C@@H]12,> 100,> 100,> 100,> 100,> 100,> 100,> 100,> 100,,> 100,,,,,,,,,
Cc1cn(CCCCCCOC(=O)NC(CCCNC(N)=O)C(=O)O)c(=O)[nH]c1=O (stereo unspecified),,> 100,> 100,> 100,> 100,> 100,> 100,> 100,> 100,> 100,,,,,,,,,
O=C1c2cc3c(cc2-c2c1c1cc(F)c(F)cc1c(=O)n2CCCn1ccnc1)OCO3,0.432,0.11,,0.199,14.7,10.8,1.32,0.0577,> 100,> 100,< 0.01,0.0124,1.89,< 0.01,< 0.01,< 0.01,0.0469,< 0.01,0.018
Nc1c(C(=O)c2ccc(Cl)c(Cl)c2)[nH]c(NCc2ccccc2)c1C(=S)Nc1ccccc1,17.7,24.1,4.72,20.7,10.5,12.6,23.3,81.2,,32.4,,,,,,,,,
COP(=O)(OC)OCN(C)CC/C=C(\C)CC/C=C(\C)CCC=C(C)C,26.1,28,30.5,23.9,30,25.9,40.9,43.9,,,,,,,,,,,
COc1ccc(N2C(=O)C3c4[nH]c5c(C)cccc5c4C4CCC(C(C)C)CC4C3C2=O)cc1 (stereo unspecified),27.2,9.4,51.1,39.7,19.9,,> 100,48.6,27.7,31.2,,,,,,,,,
COC1/C=C/C(C)C(O)CC(O)/C=C/C(C)C(C(C)C(OC)C(C)CCC(=O)C(C)C(C/C=C/N(C)C=O)OC)OC(=O)/C=C/C=C(\C)CC(OC)CC2=CC(=O)O[C@@H](C(C)C(OC)C1)[C@H]2O (stereo partly specified),0.093,0.00586,,0.162,1.15,0.00952,0.235,1.28,0.0493,4.09,,,,,,,,,
COc1cc2c(cc1OC)C(=O)N(c1ccc(OCCN3CCCC3)cc1)C2,> 100,,> 100,> 100,> 100,> 100,> 100,> 100,> 100,> 100,,,,,,,,,
O=C(CNc1ccccc1C(=O)O)Nn1cnc2ccc(S(=O)(=O)Nc3ccccc3C(=O)O)cc2c1=O,> 100,> 100,> 100,> 100,> 100,> 100,> 100,,> 100,> 100,,,,,,,,,
COC(=O)[C@]1(c2cc3ccccc3n2S(=O)(=O)c2ccccc2)CC2CN(C(=O)OCc3ccccc3)C1C1OC(C)(C)OC21 (stereo partly specified),> 100,> 100,> 100,> 100,> 100,> 100,> 100,,> 100,> 100,,,,,,,,,
C[s+]1c2ccccc2c2ccccc21,> 100,,,> 100,> 100,> 100,> 100,,,,,,,,,,,,
N#Cc1ccccc1NC(=O)C(=O)C(C(=O)c1ccccc1F)C1OC(=O)c2ccccc21 (stereo unspecified),75.1,> 100,,> 100,> 100,> 100,> 100,,,,,,,,,,,,
